Assay results reported in PubChem BioAssay (NCI).
Values joined by “and” are separate entries in the source; they are usually repeats but may differ in a detail not shown here. Equal entries are not always repeated.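 Following 48 hours of exposure in 96-well plates, responses at five concentrations were used to interpolate endpoints linearly. At the GI50, growth is halved. TGI denotes the concentration required for complete inhibition of growth.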

Columns and labels:
Test in all cases: DTP human tumour cell line panel, 48 h
BT-549 breast = test system: BT-549 breast
HCT-15 colon = test system: HCT-15 colon
MOLT-4 leukemia = test system: MOLT-4 leukemia
PC-3 prostate = test system: PC-3 prostate
SF-295 CNS = test system: SF-295 CNS
SK-MEL-2 melanoma = test system: SK-MEL-2 melanoma
SN12C renal = test system: SN12C renal
TK-10 renal = test system: TK-10 renal

| Structure (SMILES) | GI50 (BT-549 breast) [nM] | TGI (BT-549 breast) [µM] | GI50 (HCT-15 colon) | TGI (HCT-15 colon) [µM] | GI50 (MOLT-4 leukemia) | TGI (MOLT-4 leukemia) [µM] | GI50 (PC-3 prostate) [nM] | TGI (PC-3 prostate) [µM] | GI50 (SF-295 CNS) | TGI (SF-295 CNS) [µM] | GI50 (SK-MEL-2 melanoma) [µM] | TGI (SK-MEL-2 melanoma) [µM] | GI50 (SN12C renal) [nM] | TGI (SN12C renal) [µM] | GI50 (TK-10 renal) [µM] | TGI (TK-10 renal) [µM] |
| --- | --- | --- | --- | --- | --- | --- | --- | --- | --- | --- | --- | --- | --- | --- | --- | --- |
| Nc1no[n+]([O-])c1-c1nnc2c(n1)-c1ccccc1C2=O | 2990 | 12.9 | 1830 nM | 3.91 | 2.38 µM | 6.21 | 2910 | 12.6 | 12.5 µM | 34.3 | 9.13 | 24.4 | 1860 | 3.51 | 13.9 | 27.6 |
| COc1cc(NCCC2CCCCN2)c2ncccc2c1OC (configuration not stated) | 19900 | 34.8 | 21200 nM | 85.5 |  |  | 18100 | 72 | 10.4 µM | 31 | 3.13 | 9.07 | 2230 | 6.77 | 22.1 | 39.7 |
| Cc1nn(-c2ccccc2)c2nc(C)n(-c3ccc(Br)cc3)c(=O)c12 | 688 | 67.3 | 416 nM | > 100 | 0.53 µM | > 100 | 475 | > 100 | 0.357 µM |  | 0.654 | > 100 | 721 | > 100 | 5.53 | > 100 |
| CCC(C(=O)[C@@H](C)[C@@H](O)[C@H](C)[C@@H]1O[C@@H]([C@@H](CC)C(=O)ONC(=O)c2ccccc2)CC[C@@H]1C)[C@H]1O[C@]2(C=CC(=O)[C@]3(CC[C@@](C)([C@H]4CC[C@](O)(CC)[C@H](C)O4)O3)O2)[C@H](C)C[C@@H]1C (some centres not stated) | 146 | 1.97 | 349 nM | 1.61 | 0.729 µM | 3.32 | 77.5 | 1.99 | 0.384 µM | 2.08 | 1.07 | 2.91 | 61.4 | 1.49 | 1.1 | 2.44 |
| Cc1ccc(NC2=CC(=O)C(=O)c3ccccc32)cc1 | 1730 | 3.31 | 1490 nM | 3.91 | 3.71 µM | > 100 | 1870 | 15.7 | 1.7 µM | 3.15 | 1.86 | 4.06 | 1650 | 3.32 | 2.83 | 11 |
| Cn1cc(-c2nc(-c3cn(C)c4ncccc34)cs2)c2ccccc21 | 2320 | 31 | 1490 nM | > 100 | 4.65 µM | > 100 | 1920 | 9.3 | 1.22 µM | 10.8 | 4.5 | 68.7 | 4760 | > 100 | 2.4 | 11.6 |
| Cc1ccc(/C(=C/C=C(C#N)C#N)Sc2nc3ccccc3s2)cc1 | 793 | 3.65 |  |  | > 100 µM | > 100 | 2250 | 6.52 | 5.77 µM | 21 | 4.95 | 27.1 | 1980 | 4.55 | 2.42 | 6.37 |
| COc1ccc2nc3ccccc3c(NCc3ccccc3)c2c1 | 2160 | 5.18 | 1830 nM | 4.46 | 2.76 µM | 11.2 | 2350 | 7.39 | 2.13 µM | 5.86 | 2.2 | 4.9 | 2710 | 10.5 | 3.79 | 13.1 |
| CC1(C)CN(CCNc2nccc(-c3c(-c4cccc(O)c4)nc4sccn34)n2)S(=O)(=O)N1 | > 22500 | > 33.2 | 11500 nM | > 33.2 | 11.3 µM | > 33.2 | 17100 | > 33.2 | 17.7 µM | > 33.2 | 1.36 | 4.83 | 9860 | > 33.2 | > 22.6 | > 33.2 |
| Oc1ccc(/C=N/NC(=S)Nc2cccnc2)nc1 |  |  |  | > 100 |  | 15 |  | > 100 |  | > 75.6 |  | > 100 |  | > 57 |  | > 25.7 |
| Cc1cn2c(/C=C3\C(=O)N(C)c4ccc(Cl)cc43)c(C)nc2s1 | 6400 | > 100 | 4030 nM | > 100 | 3.1 µM | 15.9 | 990 | 4.38 | 3.63 µM | > 100 | 6.81 | > 100 | 5240 | > 100 | 9.65 | 73 |
| Oc1cc(O)c2c(c1)OC(c1ccc(O)c(O)c1)C(O)C2c1c(O)cc(O)c2c1OC(c1ccc(O)c(O)c1)C(O)C2 (configuration not stated) |  | > 100 |  | > 100 |  |  |  | > 100 |  | > 100 |  | > 100 |  | > 100 |  | > 100 |
| C(=C\c1ccc(OCC2CO2)cc1)/C1=NCOC1 (configuration not stated) | 12400 | 27.2 | 5890 nM | 21.3 | 3.24 µM | 16.8 | 13200 | 28 | 28.3 µM | 84.6 | 10 | 36 | 10600 | 25.9 | 16.2 | 39.2 |
| CCN(CC)CCCC(C)Nc1ccnc(/C=C/c2ccc(Cl)cc2)c1 (configuration not stated) |  | 8.39 |  | 6.35 |  |  |  | 10.7 |  | 6.3 |  | 4.25 |  | 10.9 |  | 4.8 |
| NCCCNc1nc2ccccc2c2c(=O)c3cc(F)cc(Cl)c3sc12 | 12900 | 26.7 | 1570 nM | 3.01 | 1.78 µM | 3.77 | 1760 | 3.35 | 1.75 µM | 3.2 | 8.86 | 24 | 1710 | 3.24 | 1.91 | 3.39 |
| NC(Cc1c[nH]c2cccc(F)c12)C(=O)O (configuration not stated) | 151000 | 873 | 61600 nM and 266000 nM | 2870 | 41.7 µM and 338 µM | > 4500 |  | > 4500 | 39.5 µM and 176 µM | 1190 |  | > 4500 | 959000 | > 4500 | 1220 | > 4500 |
